# According to paper PMC4823954, “From fighting depression to conquering tumors: a novel tricyclic thiazepine compound as a tubulin polymerization inhibitor” (Cell Death & Disease, 2016):
# What was measured:
# Test in all cases: KINOMEscan
# Format in all cases: binding
# Details in all cases: read-out: % Ctrl
# TNK2 = target: T1, TNK2 (Homo sapiens, UniProt Q07912)
# T1 construct: purchased DiscoveRx KINOMEscan
# Experimental: (§1) The binding assay for 442 non-mutant kinases was performed using KINOMEscan (DiscoveRx Corporation, Fremont, CA, USA) as reported previously.[58], [59] TBPT was screened at concentrations of 5 and 10 μM to identify the affected kinases. KINOMEscan is based on a competition reaction that quantitatively measures the ability of a test compound to compete with an active site-directed ligand for binding to the kinase active site. […] After the assay plates were incubated with shaking for 1 h, the liganded beads were washed with washing buffer (1 × PBS and 0.05% Tween 20). Then, the beads were re-suspended in elution buffer (1 × PBS, 0.05% Tween 20, and 0.5 μM ligand) and incubated with shaking for 30 min. The kinase concentration in the eluates was measured via qPCR. The results are represented as ‘%Ctrl', which was calculated using the following formula: (test compound signal–positive control signal)/(DMSO signal–positive control signal) × 100%. A lower % Ctrl indicates stronger binding to the kinase active site.
# ITK = target: T2, ITK (Homo sapiens, UniProt Q08881)
# T2 construct: purchased DiscoveRx KINOMEscan
# Experimental: as §1
# TNIK = target: T3, TNIK (Homo sapiens, UniProt Q9UKE5)
# T3 construct: purchased DiscoveRx KINOMEscan
# Experimental: as §1
# CDKL5 = target: T4, CDKL5 (Homo sapiens, UniProt O76039)
# T4 construct: purchased DiscoveRx KINOMEscan
# Experimental: as §1
# p38-gamma = target: T5, p38-gamma (Homo sapiens, UniProt P53778)
# T5 construct: purchased DiscoveRx KINOMEscan
# Experimental: as §1
# AMPK-alpha2 = target: T6, AMPK-alpha2 (Homo sapiens, UniProt P54646)
# T6 construct: purchased DiscoveRx KINOMEscan
# Experimental: as §1
# CASK = target: T7, CASK (Homo sapiens, UniProt O14936)
# T7 construct: purchased DiscoveRx KINOMEscan
# T7 sequence (O14936 whole entry): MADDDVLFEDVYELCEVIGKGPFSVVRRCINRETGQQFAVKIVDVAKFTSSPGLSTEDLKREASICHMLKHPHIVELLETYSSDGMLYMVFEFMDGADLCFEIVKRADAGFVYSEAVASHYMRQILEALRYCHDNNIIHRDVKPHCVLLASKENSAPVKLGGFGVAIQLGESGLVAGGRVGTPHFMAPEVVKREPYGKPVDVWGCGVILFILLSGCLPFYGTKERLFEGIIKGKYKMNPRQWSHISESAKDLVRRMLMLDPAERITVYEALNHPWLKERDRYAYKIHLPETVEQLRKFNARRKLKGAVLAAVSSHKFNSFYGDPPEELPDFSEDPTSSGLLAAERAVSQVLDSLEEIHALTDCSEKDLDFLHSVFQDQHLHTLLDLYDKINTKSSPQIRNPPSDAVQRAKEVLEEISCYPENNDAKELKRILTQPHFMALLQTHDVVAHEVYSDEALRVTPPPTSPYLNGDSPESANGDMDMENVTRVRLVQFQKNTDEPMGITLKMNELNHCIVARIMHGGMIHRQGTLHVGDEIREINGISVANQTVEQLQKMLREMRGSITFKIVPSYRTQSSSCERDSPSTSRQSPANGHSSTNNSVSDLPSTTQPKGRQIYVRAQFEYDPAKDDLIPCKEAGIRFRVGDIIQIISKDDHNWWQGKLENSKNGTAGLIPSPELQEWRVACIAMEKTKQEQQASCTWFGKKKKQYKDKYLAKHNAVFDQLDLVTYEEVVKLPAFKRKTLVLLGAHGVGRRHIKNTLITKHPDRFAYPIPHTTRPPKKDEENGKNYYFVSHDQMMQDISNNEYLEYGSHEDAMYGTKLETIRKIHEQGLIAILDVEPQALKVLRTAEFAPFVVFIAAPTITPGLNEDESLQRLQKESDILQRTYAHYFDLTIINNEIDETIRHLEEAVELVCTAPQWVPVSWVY
# Experimental: as §1
# GSK3B = target: T8, GSK3B (Homo sapiens, UniProt P49841)
# T8 construct: purchased DiscoveRx KINOMEscan
# T8 sequence (P49841 whole entry): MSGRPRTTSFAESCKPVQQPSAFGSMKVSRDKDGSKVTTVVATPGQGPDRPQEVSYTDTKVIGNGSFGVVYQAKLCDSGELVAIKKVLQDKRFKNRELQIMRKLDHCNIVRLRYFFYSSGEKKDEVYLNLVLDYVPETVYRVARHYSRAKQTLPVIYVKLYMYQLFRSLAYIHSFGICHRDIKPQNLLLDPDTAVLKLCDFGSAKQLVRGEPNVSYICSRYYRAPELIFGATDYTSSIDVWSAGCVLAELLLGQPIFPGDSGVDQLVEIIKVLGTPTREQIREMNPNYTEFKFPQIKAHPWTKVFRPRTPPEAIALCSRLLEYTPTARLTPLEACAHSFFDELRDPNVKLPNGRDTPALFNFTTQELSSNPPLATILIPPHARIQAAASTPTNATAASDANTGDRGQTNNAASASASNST
# Experimental: as §1
# PIP5K2C = target: T9, PIP5K2C (Homo sapiens, UniProt Q8TBX8)
# T9 construct: purchased DiscoveRx KINOMEscan
# Experimental: as §1
# PRKD3 = target: T10, PRKD3 (Homo sapiens, UniProt O94806)
# T10 construct: purchased DiscoveRx KINOMEscan
# Experimental: as §1
# CDK2 = target: T11, CDK2 (Homo sapiens, UniProt P24941)
# T11 construct: purchased DiscoveRx KINOMEscan
# Experimental: as §1
# TNNI3K = target: T12, TNNI3K (Homo sapiens, UniProt Q59H18)
# T12 construct: purchased DiscoveRx KINOMEscan
# Experimental: as §1
# JNK2 = target: T13, JNK2 (Homo sapiens, UniProt P45984)
# T13 construct: purchased DiscoveRx KINOMEscan
# Experimental: as §1
# MAPKAPK5 = target: T14, MAPKAPK5 (Homo sapiens, UniProt Q8IW41)
# T14 construct: purchased DiscoveRx KINOMEscan
# Experimental: as §1
# FLT4 = target: T15, FLT4 (Homo sapiens, UniProt P35916)
# T15 construct: purchased DiscoveRx KINOMEscan
# Experimental: as §1
# SLK = target: T16, SLK (Homo sapiens, UniProt Q9H2G2)
# T16 construct: purchased DiscoveRx KINOMEscan
# Experimental: as §1
# TAOK2 = target: T17, TAOK2 (Homo sapiens, UniProt Q9UL54)
# T17 construct: purchased DiscoveRx KINOMEscan
# Experimental: as §1
# EPHA3 = target: T18, EPHA3 (Homo sapiens, UniProt P29320)
# T18 construct: purchased DiscoveRx KINOMEscan
# Experimental: as §1
# EGFR(E746-A750del) = target: T19, EGFR(E746-A750del) (Homo sapiens, UniProt P00533, DEL746-750)
# T19 construct: purchased DiscoveRx KINOMEscan
# Experimental: as §1
# STK33 = target: T20, STK33 (Homo sapiens, UniProt Q9BYT3)
# T20 construct: purchased DiscoveRx KINOMEscan
# Experimental: as §1
# MAP3K3 = target: T21, MAP3K3 (Homo sapiens, UniProt Q99759)
# T21 construct: purchased DiscoveRx KINOMEscan
# T21 sequence (Q99759 whole entry): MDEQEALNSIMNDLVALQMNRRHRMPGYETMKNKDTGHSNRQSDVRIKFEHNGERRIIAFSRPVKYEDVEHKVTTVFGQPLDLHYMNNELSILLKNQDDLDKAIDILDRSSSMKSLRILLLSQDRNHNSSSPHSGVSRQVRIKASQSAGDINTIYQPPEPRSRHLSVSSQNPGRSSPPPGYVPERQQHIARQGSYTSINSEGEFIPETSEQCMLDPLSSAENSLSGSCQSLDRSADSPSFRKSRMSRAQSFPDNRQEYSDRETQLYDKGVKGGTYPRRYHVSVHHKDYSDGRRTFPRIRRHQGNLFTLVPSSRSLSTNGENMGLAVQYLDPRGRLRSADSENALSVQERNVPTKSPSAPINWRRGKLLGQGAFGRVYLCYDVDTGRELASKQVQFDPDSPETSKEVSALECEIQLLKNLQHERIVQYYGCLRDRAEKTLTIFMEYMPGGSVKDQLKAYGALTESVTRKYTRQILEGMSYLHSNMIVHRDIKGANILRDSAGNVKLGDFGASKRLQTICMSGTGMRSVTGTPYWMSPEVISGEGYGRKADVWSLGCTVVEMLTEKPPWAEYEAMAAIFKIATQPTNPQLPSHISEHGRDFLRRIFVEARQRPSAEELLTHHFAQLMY
# Experimental: as §1
# SIK2 = target: T22, SIK2 (Homo sapiens, UniProt Q9H0K1)
# T22 construct: purchased DiscoveRx KINOMEscan
# Experimental: as §1
# BMPR1B = target: T23, BMPR1B (Homo sapiens, UniProt O00238)
# T23 construct: purchased DiscoveRx KINOMEscan
# T23 sequence (O00238 14-502): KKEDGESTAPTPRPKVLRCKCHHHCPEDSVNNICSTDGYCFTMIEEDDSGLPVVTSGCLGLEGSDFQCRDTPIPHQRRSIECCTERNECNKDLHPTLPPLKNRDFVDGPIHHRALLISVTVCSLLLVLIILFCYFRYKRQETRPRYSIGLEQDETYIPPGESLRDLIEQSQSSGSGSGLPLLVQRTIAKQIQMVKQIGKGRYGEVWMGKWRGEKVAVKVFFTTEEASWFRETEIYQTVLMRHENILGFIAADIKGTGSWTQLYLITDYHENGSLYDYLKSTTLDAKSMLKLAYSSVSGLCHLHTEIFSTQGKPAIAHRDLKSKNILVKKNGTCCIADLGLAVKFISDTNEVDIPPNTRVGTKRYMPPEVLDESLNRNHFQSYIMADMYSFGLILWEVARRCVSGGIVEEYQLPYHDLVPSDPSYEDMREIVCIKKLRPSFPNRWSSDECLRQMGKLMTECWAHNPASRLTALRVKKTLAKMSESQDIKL
# Experimental: as §1
# PIK3CG = target: T24, PIK3CG (Homo sapiens, UniProt P48736)
# T24 construct: purchased DiscoveRx KINOMEscan
# T24 sequence (P48736 whole entry): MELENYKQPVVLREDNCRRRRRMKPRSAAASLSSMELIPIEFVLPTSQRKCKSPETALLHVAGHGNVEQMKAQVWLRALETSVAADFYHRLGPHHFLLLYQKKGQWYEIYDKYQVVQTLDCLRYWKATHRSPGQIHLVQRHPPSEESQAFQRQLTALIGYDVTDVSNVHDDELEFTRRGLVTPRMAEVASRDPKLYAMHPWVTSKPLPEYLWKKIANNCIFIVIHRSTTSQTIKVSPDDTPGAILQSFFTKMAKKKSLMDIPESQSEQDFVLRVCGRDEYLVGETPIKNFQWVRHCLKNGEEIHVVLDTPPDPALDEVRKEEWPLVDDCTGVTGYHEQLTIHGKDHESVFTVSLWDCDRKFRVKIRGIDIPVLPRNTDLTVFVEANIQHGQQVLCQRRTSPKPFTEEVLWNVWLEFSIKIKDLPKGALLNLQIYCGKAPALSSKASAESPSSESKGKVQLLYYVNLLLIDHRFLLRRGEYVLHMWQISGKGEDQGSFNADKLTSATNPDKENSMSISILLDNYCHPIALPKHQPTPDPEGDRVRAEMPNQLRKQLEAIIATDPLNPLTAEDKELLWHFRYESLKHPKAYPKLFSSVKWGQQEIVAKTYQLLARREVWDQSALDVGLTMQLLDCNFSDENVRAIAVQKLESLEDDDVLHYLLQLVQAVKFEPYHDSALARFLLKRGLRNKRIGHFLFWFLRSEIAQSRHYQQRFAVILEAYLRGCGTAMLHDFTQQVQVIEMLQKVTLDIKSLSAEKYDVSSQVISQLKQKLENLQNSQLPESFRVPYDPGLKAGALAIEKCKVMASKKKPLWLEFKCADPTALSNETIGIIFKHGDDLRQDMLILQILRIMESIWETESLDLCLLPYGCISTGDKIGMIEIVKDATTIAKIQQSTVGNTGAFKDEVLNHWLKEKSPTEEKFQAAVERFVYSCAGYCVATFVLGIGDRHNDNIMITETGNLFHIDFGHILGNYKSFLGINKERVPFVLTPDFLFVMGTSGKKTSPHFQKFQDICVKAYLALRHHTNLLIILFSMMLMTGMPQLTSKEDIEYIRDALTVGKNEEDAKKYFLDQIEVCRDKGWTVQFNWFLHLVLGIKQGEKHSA
# Experimental: as §1
# CDK9 = target: T25, CDK9 (Homo sapiens, UniProt P50750)
# T25 construct: purchased DiscoveRx KINOMEscan
# T25 sequence (P50750 whole entry): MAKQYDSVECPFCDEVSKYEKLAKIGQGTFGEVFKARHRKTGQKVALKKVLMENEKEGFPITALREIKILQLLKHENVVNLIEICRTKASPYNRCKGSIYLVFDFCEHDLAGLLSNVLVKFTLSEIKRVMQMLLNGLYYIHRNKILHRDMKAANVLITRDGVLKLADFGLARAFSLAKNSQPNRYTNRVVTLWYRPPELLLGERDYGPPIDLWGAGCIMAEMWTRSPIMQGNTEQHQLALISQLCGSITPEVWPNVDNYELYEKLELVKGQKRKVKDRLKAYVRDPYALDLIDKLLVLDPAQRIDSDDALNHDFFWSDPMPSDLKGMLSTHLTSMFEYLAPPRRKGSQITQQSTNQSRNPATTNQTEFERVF
# Experimental: as §1
# CHEK2 = target: T26, CHEK2 (Homo sapiens, UniProt O96017)
# T26 construct: purchased DiscoveRx KINOMEscan
# Experimental: as §1
# ZAK = target: T27, ZAK (Homo sapiens, UniProt Q9NYL2)
# T27 construct: purchased DiscoveRx KINOMEscan
# Experimental: as §1
# ROCK1 = target: T28, ROCK1 (Homo sapiens, UniProt Q13464)
# T28 construct: purchased DiscoveRx KINOMEscan
# Experimental: as §1
# DCAMKL3 = target: T29, DCAMKL3 (Homo sapiens, UniProt Q9C098)
# T29 construct: purchased DiscoveRx KINOMEscan
# T29 sequence (Q9C098 whole entry): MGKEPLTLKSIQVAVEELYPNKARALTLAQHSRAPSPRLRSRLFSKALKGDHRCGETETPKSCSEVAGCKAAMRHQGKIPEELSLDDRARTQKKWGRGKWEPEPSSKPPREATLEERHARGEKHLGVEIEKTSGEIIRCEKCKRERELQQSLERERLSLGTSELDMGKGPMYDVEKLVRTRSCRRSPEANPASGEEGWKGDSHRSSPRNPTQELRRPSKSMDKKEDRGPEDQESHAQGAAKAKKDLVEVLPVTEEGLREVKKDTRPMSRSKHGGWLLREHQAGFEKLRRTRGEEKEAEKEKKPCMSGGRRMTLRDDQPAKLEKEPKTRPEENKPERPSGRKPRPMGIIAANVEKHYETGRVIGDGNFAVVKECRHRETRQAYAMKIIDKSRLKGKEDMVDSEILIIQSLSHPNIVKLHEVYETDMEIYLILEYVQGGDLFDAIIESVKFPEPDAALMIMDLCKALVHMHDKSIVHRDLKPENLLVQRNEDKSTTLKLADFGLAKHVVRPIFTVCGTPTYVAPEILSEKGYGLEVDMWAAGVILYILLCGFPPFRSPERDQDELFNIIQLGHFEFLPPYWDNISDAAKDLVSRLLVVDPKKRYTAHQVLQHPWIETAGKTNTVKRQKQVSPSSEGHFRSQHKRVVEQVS
# Experimental: as §1
# YANK1 = target: T30, YANK1 (Homo sapiens, UniProt Q8WU08)
# T30 construct: purchased DiscoveRx KINOMEscan
# T30 sequence (Q8WU08 whole entry): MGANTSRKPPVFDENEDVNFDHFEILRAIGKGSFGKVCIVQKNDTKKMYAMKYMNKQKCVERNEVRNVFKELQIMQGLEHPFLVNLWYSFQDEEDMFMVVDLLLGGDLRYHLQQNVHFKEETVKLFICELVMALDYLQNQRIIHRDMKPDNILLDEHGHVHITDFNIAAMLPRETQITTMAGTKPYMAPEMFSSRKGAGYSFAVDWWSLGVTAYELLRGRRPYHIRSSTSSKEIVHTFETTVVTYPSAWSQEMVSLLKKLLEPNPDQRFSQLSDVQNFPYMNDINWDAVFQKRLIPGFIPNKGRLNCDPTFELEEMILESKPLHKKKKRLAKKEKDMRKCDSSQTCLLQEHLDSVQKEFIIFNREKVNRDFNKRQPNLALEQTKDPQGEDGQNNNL
# Experimental: as §1
# BRAF = target: T31, BRAF (Homo sapiens, UniProt P15056)
# T31 construct: purchased DiscoveRx KINOMEscan
# Experimental: as §1
structure (smiles),measurement,setting,value
"Cc1ccc(C2=Nc3cccnc3S(=O)(=O)c3ccccc32)cc1 [TBPT, 6-(p-tolyl)benzo[f] pyrido[2,3-b][1,4] thiazepine 11,11-dioxide]",remaining binding at 5 µM,TNK2; 5 μM,100%
same,remaining binding at 10 µM,TNK2; 10 μM,100%
same,remaining binding at 5 µM,ITK; 5 μM,100%
same,remaining binding at 10 µM,ITK; 10 μM,90%
same,remaining binding at 5 µM,TNIK; 5 μM,84%
same,remaining binding at 10 µM,TNIK; 10 μM,97%
same,remaining binding at 5 µM,CDKL5; 5 μM,100%
same,remaining binding at 10 µM,CDKL5; 10 μM,100%
same,remaining binding at 5 µM,p38-gamma; 5 μM,100%
same,remaining binding at 10 µM,p38-gamma; 10 μM,88%
same,remaining binding at 5 µM,AMPK-alpha2; 5 μM,81%
same,remaining binding at 10 µM,AMPK-alpha2; 10 μM,95%
same,remaining binding at 5 µM,CASK; 5 μM,100%
same,remaining binding at 10 µM,CASK; 10 μM,100%
same,remaining binding at 5 µM,GSK3B; 5 μM,89%
same,remaining binding at 10 µM,GSK3B; 10 μM,100%
same,remaining binding at 5 µM,PIP5K2C; 5 μM,100%
same,remaining binding at 10 µM,PIP5K2C; 10 μM,100%
same,remaining binding at 5 µM,PRKD3; 5 μM,100%
same,remaining binding at 10 µM,PRKD3; 10 μM,78%
same,remaining binding at 5 µM,CDK2; 5 μM,98%
same,remaining binding at 10 µM,CDK2; 10 μM,93%
same,remaining binding at 5 µM,TNNI3K; 5 μM,100%
same,remaining binding at 10 µM,TNNI3K; 10 μM,89%
same,remaining binding at 5 µM,JNK2; 5 μM,99%
same,remaining binding at 10 µM,JNK2; 10 μM,100%
same,remaining binding at 5 µM,MAPKAPK5; 5 μM,100%
same,remaining binding at 10 µM,MAPKAPK5; 10 μM,88%
same,remaining binding at 5 µM,FLT4; 5 μM,100%
same,remaining binding at 10 µM,FLT4; 10 μM,100%
same,remaining binding at 5 µM,SLK; 5 μM,100%
same,remaining binding at 10 µM,SLK; 10 μM,86%
same,remaining binding at 5 µM,TAOK2; 5 μM,90%
same,remaining binding at 10 µM,TAOK2; 10 μM,67%
same,remaining binding at 5 µM,EPHA3; 5 μM,80%
same,remaining binding at 10 µM,EPHA3; 10 μM,100%
same,remaining binding at 5 µM,EGFR(E746-A750del); 5 μM,81%
same,remaining binding at 10 µM,EGFR(E746-A750del); 10 μM,100%
same,remaining binding at 5 µM,STK33; 5 μM,99%
same,remaining binding at 10 µM,STK33; 10 μM,100%
same,remaining binding at 5 µM,MAP3K3; 5 μM,79%
same,remaining binding at 10 µM,MAP3K3; 10 μM,92%
same,remaining binding at 5 µM,SIK2; 5 μM,84%
same,remaining binding at 10 µM,SIK2; 10 μM,90%
same,remaining binding at 5 µM,BMPR1B; 5 μM,95%
same,remaining binding at 10 µM,BMPR1B; 10 μM,88%
same,remaining binding at 5 µM,PIK3CG; 5 μM,89%
same,remaining binding at 10 µM,PIK3CG; 10 μM,80%
same,remaining binding at 5 µM,CDK9; 5 μM,100%
same,remaining binding at 10 µM,CDK9; 10 μM,100%
same,remaining binding at 5 µM,CHEK2; 5 μM,100%
same,remaining binding at 10 µM,CHEK2; 10 μM,100%
same,remaining binding at 5 µM,ZAK; 5 μM,94%
same,remaining binding at 10 µM,ZAK; 10 μM,83%
same,remaining binding at 5 µM,ROCK1; 5 μM,84%
same,remaining binding at 10 µM,ROCK1; 10 μM,100%
same,remaining binding at 5 µM,DCAMKL3; 5 μM,100%
same,remaining binding at 10 µM,DCAMKL3; 10 μM,79%
same,remaining binding at 5 µM,YANK1; 5 μM,96%
same,remaining binding at 10 µM,YANK1; 10 μM,100%
same,remaining binding at 5 µM,BRAF; 5 μM,100%
same,remaining binding at 10 µM,BRAF; 10 μM,100%
